Data from ChEMBL document CHEMBL4304757, “Synthetic heterocyclic candidates as promising α-glucosidase inhibitors: An overview” (Eur J Med Chem, 2019).
One block for each compound: values may come before it.

Experiments:
Alpha glucosidase [1] = target: T1, Alpha glucosidase (Homo sapiens, UniProt O43451+P10253+P14410+Q2M2H8); assay: Inhibition of alpha-glucosidase (unknown origin) using p-nitrophenyl-alpha-d-glucopyranoside as substrate preincubated for 5 mins followed by substrate addition measured after 30 mins; format: protein assay
MDA-MB-231 = assay: Cytotoxicity against human MDA-MB-231 cells assessed as reduction in cell viability at 100 uM relative to control; format: functional, cell-based; details: for IC50: Homo sapiens, MDA-MB-231
[2] = Inhibition of yeast alpha-glucosidase; design: species or system Saccharomyces cerevisiae
[3] = Inhibition of mouse alpha-glucosidase
[4] = Inhibition of yeast alpha-glucosidase using p-nitrophenyl-alpha-d-glucopyranoside as substrate preincubated with enzyme followed by substrate addition measured after 30 mins; design: species or system Saccharomyces cerevisiae
Alpha glucosidase [5] = target: T1, Alpha glucosidase; assay: Inhibition of alpha-glucosidase (unknown origin) using p-nitro phenyl glucopyranoside as substrate preincubated for 10 mins followed by substrate addition measured after 10 mins; format: protein assay
Alpha glucosidase [6] = target: T1, Alpha glucosidase; assay: Inhibition of alpha-glucosidase (unknown origin) using p-nitrophenyl-alpha-d-glucopyranoside as substrate preincubated for 10 mins followed by substrate addition measured after 20 mins; format: protein assay
[7] = Inhibition of yeast alpha-glucosidase using p-nitrophenyl-alpha-d-glucopyranoside as substrate preincubated for 15 mins followed by substrate addition measured after 30 mins; design: species or system Saccharomyces cerevisiae
Alpha glucosidase [8] = target: T1, Alpha glucosidase; assay: Inhibition of alpha-glucosidase (unknown origin) using p-nitro phenyl glucopyranoside as substrate preincubated for 10 mins followed by substrate addition measured after 30 mins; format: protein assay
[9] = Inhibition of yeast alpha-glucosidase using p-nitrophenyl-alpha-d-glucopyranoside as substrate preincubated for 15 mins followed by substrate addition measured after 20 mins; design: species or system Saccharomyces cerevisiae

IC50 (Alpha glucosidase [1]): 0.09 to 1.6 µM
Structure (SMILES): COc1cccc(N2C(=O)/C(=C/c3ccc(F)cc3)S/C2=N\NC(=O)c2cc3ccccc3oc2=O)c1
Activity (MDA-MB-231): >=76%

IC50 [2]: 97 to 119 µM
IC50 [3]: 98 to 413 µM
Structure (SMILES): COc1ccc(/C=C/C(=O)C2=C(/C=C/c3ccc(OC)c(O)c3)Oc3[nH]c(=O)[nH]c(=O)c3C2c2cccc([N+](=O)[O-])c2)cc1O (stereo not given)

IC50 [4]: 2.1 to 289 µM
Structure (SMILES): CC1=NN(c2ccccc2)C(=O)/C1=C/c1cn(-c2ccccc2)nc1-c1cc2ccccc2oc1=O

IC50 (Alpha glucosidase [1]): 0.09 to 1.6 µM
Structure (SMILES): Cc1cc(C)cc(N2C(=O)/C(=C/c3ccc(F)cc3)S/C2=N\NC(=O)c2cc3ccccc3oc2=O)c1
IC50 (MDA-MB-231): 0.09 to 1.6 µM

IC50 (Alpha glucosidase [5]): 0.55 to 35 µM
Structure (SMILES): O=C1NC(=O)/C(=C\c2ccc(-n3ccc4c(Nc5ccc(F)cc5)ccnc43)cc2)S1

IC50 (Alpha glucosidase [1]): 0.09 to 1.6 µM
Structure (SMILES): Cc1ccc(N2C(=O)/C(=C/c3ccc(F)cc3)S/C2=N\NC(=O)c2cc3ccccc3oc2=O)c(C)c1
Activity (MDA-MB-231): >=76%

IC50 [4]: 2.1 to 289 µM
Structure (SMILES): CC1=NN(c2ccccc2)C(=O)/C1=C/c1cn(-c2ccccc2)nc1-c1cc2cc(Br)ccc2oc1=O

IC50 (Alpha glucosidase [6]): 20 to 180 µM
Structure (SMILES): Nc1c(C(c2ccc(O)cc2)c2c(N)c3ccccc3oc2=O)c(=O)oc2ccccc12

IC50 [7]: 6.8 µM
Structure (SMILES): Cc1ncc([N+](=O)[O-])n1Cn1cc(Cn2c3ccccc3c3ccccc32)nn1

IC50 [4]: 2.1 to 289 µM
Structure (SMILES): O=C1/C(=C/c2cn(-c3ccccc3)nc2-c2cc3cc(Br)ccc3oc2=O)C(c2ccccc2)=NN1c1ccccc1

IC50 (Alpha glucosidase [1]): 0.09 to 1.6 µM
Structure (SMILES): Cc1ccc(N2C(=O)/C(=C/c3ccc(F)cc3)S/C2=N\NC(=O)c2cc3ccccc3oc2=O)cc1
Activity (MDA-MB-231): >=76%

IC50 (Alpha glucosidase [1]): > 100 µM
Structure (SMILES): O=C(N/N=C1\S/C(=C\c2ccc(F)cc2)C(=O)N1c1cccc(Cl)c1)c1cc2ccccc2oc1=O
Activity (MDA-MB-231): >=76%

IC50 (Alpha glucosidase [8]): 6.2 to 81 µM
Structure (SMILES): COc1ccc(/C=N/NC(=O)c2nc(-c3cc4ccccc4oc3=O)cs2)c(O)c1

IC50 [9]: 3.4 to 20 µM
Structure (SMILES): CN(C)c1ccc(-c2nc3ccc(N4CCOCC4)cc3[nH]2)cc1

IC50 [9]: 10 µM
Structure (SMILES): NNC(=O)Cn1c(Cc2ccc(Cl)cc2Cl)nc2ccc([N+](=O)[O-])cc21

IC50 [7]: 73 µM
Structure (SMILES): c1ccc2c(c1)c1ccccc1n2Cc1cn(Cc2ccc(-c3ccc(Cn4cc(Cn5c6ccccc6c6ccccc65)nn4)cc3)cc2)nn1

Structure (SMILES): CN1CCN(c2ccc3nc(-c4ccc(F)c(Br)c4)[nH]c3c2)CC1
IC50 [9]: 2.2 to 21 µM

IC50 [7]: 6.5 µM
Structure (SMILES): O=C(c1ccc(O)cc1)C1Cc2c(ccc3ccccc23)O1 (stereo not given)

IC50 [7]: 60 to 180 µM
Structure (SMILES): Cc1[nH]nc2c1C(c1ccccc1OCc1ccccc1)C(C#N)=C(N)O2 (stereo not given)

IC50 [4]: 2.1 µM
Structure (SMILES): CC1=NN(c2ccc([N+](=O)[O-])cc2)C(=O)/C1=C/c1cn(-c2ccccc2)nc1-c1cc2cc(Br)ccc2oc1=O

IC50 (Alpha glucosidase [1]): 0.09 to 1.6 µM
Structure (SMILES): Cc1ccc(N2C(=O)/C(=C/c3ccc(F)cc3)S/C2=N\NC(=O)c2cc3ccccc3oc2=O)cc1C
IC50 (MDA-MB-231): 0.09 to 1.6 µM

IC50 [9]: 3.4 to 20 µM
Structure (SMILES): Fc1ccc(-c2nc3ccc(N4CCOCC4)cc3[nH]2)cc1Br

IC50 (Alpha glucosidase [1]): 0.09 to 1.6 µM
Structure (SMILES): Cc1cccc(N2C(=O)/C(=C/c3ccc(F)cc3)S/C2=N\NC(=O)c2cc3ccccc3oc2=O)c1
Activity (MDA-MB-231): >=76%

IC50 (Alpha glucosidase [1]): 0.09 µM
Structure (SMILES): COc1ccccc1N1C(=O)/C(=C/c2ccc(F)cc2)S/C1=N\NC(=O)c1cc2ccccc2oc1=O
Activity (MDA-MB-231): 72.8%

IC50 [4]: 2.1 to 289 µM
Structure (SMILES): CC1=NN(c2ccccc2)C(=O)/C1=C/c1cn(-c2ccccc2)nc1-c1ccc(-c2ccccc2)cc1

IC50 (Alpha glucosidase [1]): 0.09 to 1.6 µM
Structure (SMILES): COc1ccc(N2C(=O)/C(=C/c3ccc(F)cc3)S/C2=N\NC(=O)c2cc3ccccc3oc2=O)cc1
Activity (MDA-MB-231): >=76%

IC50 (Alpha glucosidase [8]): 6.2 to 81 µM
Structure (SMILES): O=C(N/N=C/c1ccc(O)c(O)c1)c1nc(-c2cc3ccccc3oc2=O)cs1

IC50 (Alpha glucosidase [6]): 20 to 180 µM
Structure (SMILES): Nc1c(C(c2ccccc2Cl)c2c(N)c3ccccc3oc2=O)c(=O)oc2ccccc12

IC50 [4]: 2.1 to 289 µM
Structure (SMILES): O=C1/C(=C/c2cn(-c3ccccc3)nc2-c2cc3ccccc3oc2=O)C(c2ccccc2)=NN1c1ccccc1

IC50 [9]: 3.4 to 20 µM
Structure (SMILES): COc1cc(-c2nc3ccc(N4CCOCC4)cc3[nH]2)ccc1O

IC50 (Alpha glucosidase [6]): 20 to 180 µM
Structure (SMILES): Cc1cccc(C(c2c(N)c3ccccc3oc2=O)c2c(N)c3ccccc3oc2=O)c1

IC50 [7]: 0.61 to 1 µM
Structure (SMILES): O=C(Cn1cc(Cn2c3ccccc3c3ccccc32)nn1)c1ccc(O)c(Br)c1

IC50 (Alpha glucosidase [1]): 0.09 to 1.6 µM
Structure (SMILES): O=C(N/N=C1\S/C(=C\c2ccc(F)cc2)C(=O)N1c1ccccc1Cl)c1cc2ccccc2oc1=O
IC50 (MDA-MB-231): 0.09 to 1.6 µM

IC50 [9]: 3.4 to 20 µM
Structure (SMILES): Clc1ccc(-c2nc3ccc(N4CCOCC4)cc3[nH]2)cc1

IC50 (Alpha glucosidase [6]): 20 to 180 µM
Structure (SMILES): Nc1c(C(c2ccccc2F)c2c(N)c3ccccc3oc2=O)c(=O)oc2ccccc12

IC50 (Alpha glucosidase [5]): 0.55 to 35 µM
Structure (SMILES): O=C(O)CN1C(=O)S/C(=C/c2ccc(-n3ccc4c(Br)ccnc43)cc2)C1=O

IC50 [7]: 3.6 µM
Structure (SMILES): c1ccc2c(c1)c1ccccc1n2Cc1cn(Cc2ccc(Cn3cc(Cn4c5ccccc5c5ccccc54)nn3)cc2)nn1

IC50 [4]: 2.1 to 289 µM
Structure (SMILES): CC1=NN(c2ccc([N+](=O)[O-])cc2)C(=O)/C1=C/c1cn(-c2ccccc2)nc1-c1cc2ccccc2oc1=O

IC50 [4]: 2.1 to 289 µM
Structure (SMILES): CC1=NN(c2ccc(C)cc2)C(=O)/C1=C/c1cn(-c2ccccc2)nc1-c1ccc(-c2ccccc2)cc1
